The values that follow are results of earlier work, collected in patent publication US20230414778A1, “COMBINATION OF ANTIBODY-DRUG CONJUGATE WITH ANTI-SIRPalpha ANTIBODY” (DAIICHI SANKYO COMPANY, LIMITED, priority 2020, published 2023).

One data set addresses T1, Topoisomerase I (Homo sapiens, UniProt P11387).
T1 sequence (P11387 1-765): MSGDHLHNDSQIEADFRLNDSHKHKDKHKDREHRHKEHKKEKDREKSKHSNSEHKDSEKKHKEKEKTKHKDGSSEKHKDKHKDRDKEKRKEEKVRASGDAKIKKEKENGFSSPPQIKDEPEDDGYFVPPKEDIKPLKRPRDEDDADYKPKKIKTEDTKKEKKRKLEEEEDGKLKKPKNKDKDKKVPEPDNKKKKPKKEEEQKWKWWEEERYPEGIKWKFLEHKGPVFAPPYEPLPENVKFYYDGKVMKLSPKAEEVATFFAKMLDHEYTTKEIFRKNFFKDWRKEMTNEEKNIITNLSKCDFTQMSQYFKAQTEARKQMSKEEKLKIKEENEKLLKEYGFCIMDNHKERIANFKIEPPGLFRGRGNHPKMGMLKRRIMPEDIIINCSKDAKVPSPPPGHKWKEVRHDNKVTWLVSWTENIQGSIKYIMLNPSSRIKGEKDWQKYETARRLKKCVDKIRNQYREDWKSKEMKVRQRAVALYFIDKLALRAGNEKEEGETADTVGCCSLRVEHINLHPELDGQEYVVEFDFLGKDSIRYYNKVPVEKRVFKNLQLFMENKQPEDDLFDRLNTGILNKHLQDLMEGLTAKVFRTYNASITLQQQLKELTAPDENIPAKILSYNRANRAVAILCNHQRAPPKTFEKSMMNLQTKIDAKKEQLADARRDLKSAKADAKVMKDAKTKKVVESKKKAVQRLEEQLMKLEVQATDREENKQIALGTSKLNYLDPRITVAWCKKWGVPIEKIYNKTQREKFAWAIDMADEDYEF
As to conditions: Ogitani Y. et al., Clinical Cancer Research 2016; cited from earlier work.

Data set [1] concerns cells treated with compound (A). The following applies: Clin. Invest. 2020: 130(1): 374-388; cited from earlier work.
For data set [2] the following is noted: Clin. Invest. 2020: 130(1): 374-388; cited from earlier work.

SMILES strings stand for the structures.

On to `CC[C@@]1(O)C(=O)OCc2c1cc1n(c2=O)Cc2c-1nc1cc(F)c(C)c3c1c2[C@@H](NC(=O)CO)CC3` [compound (A)], for which the “topoisomerase I inhibitory effect” value on Topoisomerase I is “TpoI inhibitor”. In data set [1], the “HMGB1 release from treated cells” value was “released”. Moreover, in data set [2], the “antitumor effect by vaccination of the treated cells” value is recorded as “limited antitumor effect”.
